Molecules are shown by their SMILES. pIC50: −log10 of the molar value. Converted amounts (≈) assume the structure as drawn.

The first assay deals with Influenza A virus. Kind of assay: Antiviral activity against Influenza A virus (A/Puerto Rico/8/34(H1N1)) infected in MDCK cells assessed as protection against virus-induced cytopathogenicity after 48 hrs by crystal-violet staining-based assay. The format is functional, organism-based. The conditions noted are these: A/Puerto Rico/8/1934(H1N1). Background: Damage to the host cells serves as the signal in cytopathic effect assays.
Regarding `CC(=O)O[C@@H]1c2c3c(cc(O)c2C(=O)O[C@@H]1C)O[C@@]1(C)[C@@H](O)C[C@H]2C(C)(C)C(=O)CC[C@]2(C)[C@@H]1C3`, the negative-log IC50 (pIC50) is 4.24.

With `C[C@@H]1Cc2c3c(c(Cl)c(O)c2C(=O)O1)O[C@@]1(C)[C@@H](O)C[C@H]2C(C)(C)C(=O)C=C[C@]2(C)[C@@H]1C3`, the pIC50 is 4.13.

Take `C[C@@H]1Cc2c3c(cc(O)c2C(=O)O1)O[C@@]1(C)CC[C@H]2C(C)(C)C(=O)CC[C@]2(C)[C@@H]1C3`: the pIC50 is 4.47.

Regarding `NC(=O)c1ncn([C@@H]2O[C@H](CO)[C@@H](O)[C@H]2O)n1` [RIBAVIRIN], the negative-log IC50 (pIC50) is 3.99.

For the next assay, the system named is Staphylococcus aureus. Nature of the assay: Antimicrobial activity against Staphylococcus aureus by XTT assay. The assay is classed as functional.
Settings: not given
Background: Formazan colour is commonly taken as a measure of viable cells.
For the compound `CN[C@@H]1[C@@H](O)[C@@H](O[C@@H]2[C@@H](O)[C@H](O[C@H]3O[C@H](CN)CC[C@H]3N)[C@@H](N)C[C@H]2N)OC[C@]1(C)O.O=S(=O)(O)O`, inhibition of growth (MIC) required 4 µg/mL.

Turning to `C/C(=C\Cc1c(O)cc(O)c2c1C[C@@H](C)OC2=O)CCC(O)[C@@]1(C)CC[C@@H](C(C)(C)O)O1` (stereo partly specified), the MIC was determined as 32 µg/mL (≈ 71.3 µM).

For orientation: pIC50 means the negative decadic logarithm of the IC50, by convention in mol/L. What is called MIC is the smallest concentration in the dilution series that meets the test's criterion for growth inhibition. High values mean a need for much substance, low ones inhibition by little substance.

(Values after ChEMBL document CHEMBL4184132, “Chrodrimanins K-N and Related Meroterpenoids from the Fungus Penicillium sp. SCS-KFD09 Isolated from a Marine Worm, Sipunculus nudus” (J Nat Prod, 2017).)
